Measurements published in patent publication US20240277718A1, “USE OF […] TO REDUCE ORGAN FIBROSIS” (SUNN[…].R.L., priority 2021, published 2024).
Entries after “also recorded” stand apart in the source; their conditions may differ.

How the values were obtained:
[1] = test system: systemic fibrosis induced with hypochlorous acid (HOCI) in Balb/c mice; experiment: Histological analysis (hematoxylin/eosin, Masson's trichrome, Picrosirius red) of skin, heart and lung in HOCI-induced systemic fibrosis; type: in vivo; details: HOCI+Istra vs HOCI group, week 4 to 6
Protocol: Histological analysis, hematoxylin/eosin staining, Masson's trichrome and Picrosirius red: Tissues for histological and immunohistochemical analyses were fixed in 10% buffered formalin for 24 hours and then included according to standard paraffin protocol. The classic hematoxylin/eosin, Masson and Pricrosirius stainings were performed on 5-6 μm thickness tissue slices that were routinely processed using an automated histology preparer.
(§1) In fact, data obtained from literature indicate that it is possible to find a significant fibrosis in the major organs such as skin, heart, large vessels and lungs, already at the fourth week of induction of the disease: for this reason, the treatment with istradefylline started at the fourth week, carrying on both induction and treatment up to the sixth week.
Animals were divided into 3 groups of 7 animals each. A group was used as control group and was the group of untreated animals (“Sham”); a group was subcutaneously treated with 400 μl of an aqueous solution of hypochlorous acid (HOCI) for 6 weeks; lastly a group was subcutaneously treated with the above-mentioned solution of HOCI at the dose of 400 μl (for 6 weeks) and with istradefylline (from week 4 up to week 6) at the dose of 10 mg/kg per day intraperitoneally and 1 hour after HOCI injection (“HOCI+Istra”). […]

[2] = test system: genes encoding TGF-b, Wnt1, Wnt5, Wnt10, DKK1 and Col1A1; experiment: Quantitative Real-Time PCR of fibrosis-related genes in lungs in HOCI-induced systemic fibrosis; type: in vivo, Balb/c mice; details: HOCI+Istra vs HOCI group, 10 mg/kg per day intraperitoneally, week 4 to 6, FIG. 4
Protocol: Quantitative Real Time PCR Method: Reverse transcription was performed using the Super-Script IV Reverse Transcriptase synthesis kit (Thermo Fisher Scientific) and random primers as indicated in the manufacturer's protocol and 1 μl of cDNA was then used for the PCR reaction by using ready-made primers (to identify Wnt1, Wnt 5, Wnt 10, TGF-b, Collagen 1A1 and DKK1) and Thermo Fisher Scientific master mix in the QuantStudio 6 Flex instrument from Applied Biosystems.
as §1
Animals were divided into 3 groups of 7 animals each. […]
Lungs obtained from the animals of all the experimental groups were subjected to the extraction of the total RNA which was then analyzed with the quantitative Real-Time PCR and specific primers to evaluate the expression of the genes encoding for TGF-b, Wnt1, Wnt5, Wnt10, DKK1 and Col1A1 (type I collagen) measured compared to the expression of the housekeeping gene, b-actin.

[3] = test system: vimentin and b-catenin (Wnt/b-catenin pathway); experiment: Immunofluorescence for vimentin and b-catenin in skin, heart and lung in HOCI-induced systemic fibrosis; type: in vivo, Balb/c mice; details: HOCI+Istra vs HOCI group; all studied tissues (skin, lung, heart); 10 mg/kg per day intraperitoneally, week 4 to 6; FIG. 3
Protocol: Immunofluorescence methods to mark vimentin and b-catenin: For immunohistochemistry the 5 μm tissue slices were incubated with 10 mmol/pH 6.0 citrate buffer in a temperature of 98° C. for 20 min. To reduce the background fluorescence, tissues were kept in a humidified chamber in 2 mmol/L glycine for 30 minutes. For the blocking of nonspecific antigenic sites, incubation was performed for 1 hour with 5% fetal bovine serum diluted in PBS, with the addition of 3% serum bovine albumin and 1% Triton X-100. Primary antibodies (p-Ser552 b-catenin, diluted 1:200; Cell Signal Technologies; Vimentin monoclonal antibody diluted 1:800; Sigma-Aldrich) were diluted in PBS and kept for 1 hour at room temperature. A species-specific antibody from Vector Laboratories was used as a negative control of the reaction. Secondary antibodies labeled with anti-rabbit IgG-fluorescein isothiocyanate (green fluorescence) or with anti-mouse IgG Alexa Fluor 555 (fred fluorescence) were kept for 1 hour at room temperature before mounting the slides and to observe the reaction under the microscope. […]

CCn1c(=O)c2c(nc(/C=C/c3ccc(OC)c(OC)c3)n2C)n(CC)c1=O [istradefylline, 8-[(1E)-2-(3,4-Dimethoxyphenyl)ethenyl]-1,3-diethyl-3,7-dihydro-7-methyl-1H-purine-2,6-dione]
thickening in skin and at the myocardial and pulmonary level (hematoxylin/eosin) ([1]; istradefylline 10 mg/kg per day intraperitoneally, FIG. 1): significantly reduce the thickening
collagen fibers deposition (Masson trichrome and Picrosirius red) ([1]; skin, lung and heart tissues, 10 mg/kg per day intraperitoneally, FIG. 2, 10 mg/kg/day): lower deposition of collagen fibers; also recorded: significant reduction collagen fibers deposition
expression of genes related to the fibrotic process (Wnt1, 5, 10 and TGF-b; 'all 3 targets') relative to b-actin [2]: significant reduction in the expression
positivity of b-catenin (immunofluorescence) [3]: significantly reduced the positivity
positivity of vimentin (immunofluorescence, fibroblast marker) [3]: significantly reduced the positivity
